Data reported in article PMC12316308, “Interactions of substrates and phosphinyl containing inhibitors with bacterial and human zinc proteases” (PLOS One, 2025).
“And” between values parts separate entries of the source, which are not always exact repeats. Equal values may be shown once. Read-outs that look alike come from different tables or passages of the source.

Legend:
Type in all cases: biochemical
[1] = target: T1, human MT1-MMP/MMP-14 (catalytic domain) (Homo sapiens, UniProt P50281); test: Enzyme inhibition kinetics, fluorogenic substrate ES001; settings: MMP-14; for remaining activity at 100 µM: 100 µM inhibitor
T1 construct: human MT1-MMP/MMP-14 (catalytic domain); purchased Calbiochem (San Diego, CA, USA)
Description: (§1) Determination of reaction velocities. The substrate ES001 was used for APMA activated MMP-9 (MMP-9(A)), Mag-Trypsin activated MMP-9 (MMP-9(MT)) and MMP-14, while the substrate ES005 was used for ALN, PLN and TLN. The reaction velocities/initial rates (v) were determined at 37°C, at an excitation wavelength of 320 nm and an emission wavelength of 405 nm with a slit width of 10 nm using either a Perkin Elmer LS 50 Luminescence spectrometer and the FL WinLab Software Package (Perkin Elmer) or a Clario Star micro plate reader (CLARIOstar® BMG LABTECH).
(§2) The phosphinic compounds were dissolved in 100% DMSO to a final concentration of 10 mM. In all assays, a fixed substrate concentration of 4.0 µM was used in a total volume of 100 µL 0.1 M Hepes pH 7.5, 10 mM CaCl2, 0.005% Brij-35 and 1.0% DMSO. Fixed enzyme concentrations were as follows; 0.05 nM MMP-9(A), 0.05 nM MMP-9(MT), 1.0 nM MMP-14, 1.4 nM ALN, 0.5 nM PLN and 0.21 nM TLN. Time dependent inhibitory experiments, with and without 100 μM of phosphinic compounds, were performed as follows: Compounds were either pre-incubated with proteases for 15 and 30 minutes at room temperature before initiating the enzymatic reaction by adding the substrate, or not pre-incubated, meaning the reaction was initiated by adding the protease to the mixture of substrate and compound. Control tests without the compound present were performed under the same conditions. Reactions were monitored for 30 minutes at 37°C.
(§3) Determination of IC50 and Ki values. […] A fixed substrate concentration and the same enzyme and buffer conditions as described above were used. Enzymes, with or without inhibitors, were either pre-incubated for 30 minutes at room temperature or not pre-incubated, and initial rate assays were performed as described above. Assays were performed using a Clario Star microplate reader. The IC50 values with corresponding s.d. were calculated with GraphPad Prism 5 using equation 1 or 2, depending on the concentration range of the phosphinic compounds.
(§4) Equation 3 describe the relationship between IC50 and Ki values for substrate competitive inhibitors, considering the fixed substrate concentration and the enzyme’s Km value for the substrate: […]

[2] = target: T2, APMA activated MMP-9 (MMP-9(A)) (Homo sapiens, UniProt P14780); test: as above; settings: rMMP-9 (APMA activated); for remaining activity at 100 µM: 100 µM inhibitor
T2 construct: made in house; host or cells: Sf9 and High Five insect cells
Description: (§5) The expression of recombinant full length proMMP-9 (rpMMP-9) in Sf9 and High Five insect cells and the purification were performed as previously described. The amount of proMMP-9 was estimated spectrophotometrically at 280 nm using ε280nm = […] [46] for the full length enzyme. Activation of the recombinant proMMP-9 was performed with APMA (auto-activation) and Mag-Trypsin as previously described, while the amount of active MMP-9 was determined by active site titration using galardin, also described previously.
as §1, §2, §3, §4

[3] = target: T3, Mag-Trypsin activated MMP-9 (MMP-9(MT)) (Homo sapiens, UniProt P14780); test: as above; settings: rMMP-9 (Mag-trypsin activated); for remaining activity at 100 µM: 100 µM inhibitor
T3 construct: made in house; host or cells: Sf9 and High Five insect cells
Description: as §5, §1, §2, §3, §4

aureolysin (ALN) = target: T4, aureolysin (ALN) (Staphylococcus aureus, UniProt P81177); test: Enzyme inhibition kinetics, fluorogenic substrate ES005; settings: for remaining activity at 100 µM: 100 µM inhibitor
T4 construct: purchased BioCentrum Ltd (Kraków, Poland)
Description: as §1, §2, §3, §4

pseudolysin (PLN, LasB) = target: T5, pseudolysin (PLN, LasB) (Pseudomonas aeruginosa, UniProt P14756); test: as above; settings: for remaining activity at 100 µM: 100 µM inhibitor
T5 construct: purchased Calbiochem (San Diego, CA, USA)
Description: as §1, §2, §3, §4

thermolysin (TLN) = target: T6, thermolysin (TLN) (Bacillus thermoproteolyticus, UniProt P00800); test: as above; settings: for vi/v0 avg (time dependent inhibition, Supplementary Figure S8): Thermolysin, inhibitor 100 µM
T6 construct: purchased Calbiochem (San Diego, CA, USA)
Description: as §1, §2, §3, §4

[4] = 0.25 h, 15 min pre incubation, read-out: vi/v0 avg
[5] = 0.5 h, 30 min pre incubation, read-out: vi/v0 (single replicate)
[6] = 0.5 h, 30 min pre incubation, read-out: vi/v0 avg
[7] = no preincubation, read-out: vi/v0 avg
[8] = inhibitor 100 μM, preincubation 0 min
[9] = inhibitor 100 μM, preincubation 15 min
[10] = inhibitor 100 μM, preincubation 30 min
[11] = 0.25 h, 15 min pre incubation, read-out: vi/v0 (single replicate)
[12] = no preincubation, read-out: vi/v0 (single replicate)
[13] = inhibitor 100 μM, average over 0, 15, 30 min preincubation

T6 sequence (P00800 233-548): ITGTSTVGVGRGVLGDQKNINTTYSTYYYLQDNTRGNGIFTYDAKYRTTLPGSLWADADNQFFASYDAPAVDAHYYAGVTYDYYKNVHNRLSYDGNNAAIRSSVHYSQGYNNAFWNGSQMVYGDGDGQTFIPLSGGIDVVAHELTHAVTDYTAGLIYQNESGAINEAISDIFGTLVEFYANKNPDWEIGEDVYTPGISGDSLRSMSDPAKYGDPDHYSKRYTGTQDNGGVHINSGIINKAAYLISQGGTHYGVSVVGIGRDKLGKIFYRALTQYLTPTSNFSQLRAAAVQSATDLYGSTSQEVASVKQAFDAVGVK
T4 sequence (P81177 209-509): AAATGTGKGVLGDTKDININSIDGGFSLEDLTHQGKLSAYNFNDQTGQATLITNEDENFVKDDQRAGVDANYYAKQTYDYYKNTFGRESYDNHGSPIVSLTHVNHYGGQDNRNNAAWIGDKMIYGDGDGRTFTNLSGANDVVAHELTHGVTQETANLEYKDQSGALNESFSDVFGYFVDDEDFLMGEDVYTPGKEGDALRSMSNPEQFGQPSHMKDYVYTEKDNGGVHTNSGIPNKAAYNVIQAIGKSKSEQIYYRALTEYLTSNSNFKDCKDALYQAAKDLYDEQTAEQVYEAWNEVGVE
T5 sequence (P14756 198-498): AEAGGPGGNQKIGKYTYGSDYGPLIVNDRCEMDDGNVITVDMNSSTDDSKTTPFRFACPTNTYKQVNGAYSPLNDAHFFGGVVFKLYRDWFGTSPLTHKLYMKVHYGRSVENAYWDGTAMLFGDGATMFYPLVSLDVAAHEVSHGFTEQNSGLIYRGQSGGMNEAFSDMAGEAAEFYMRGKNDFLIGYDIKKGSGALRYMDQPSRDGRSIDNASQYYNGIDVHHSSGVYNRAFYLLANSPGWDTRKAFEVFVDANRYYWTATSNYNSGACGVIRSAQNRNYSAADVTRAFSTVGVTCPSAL
T2 sequence (P14780 107-707 limits assumed): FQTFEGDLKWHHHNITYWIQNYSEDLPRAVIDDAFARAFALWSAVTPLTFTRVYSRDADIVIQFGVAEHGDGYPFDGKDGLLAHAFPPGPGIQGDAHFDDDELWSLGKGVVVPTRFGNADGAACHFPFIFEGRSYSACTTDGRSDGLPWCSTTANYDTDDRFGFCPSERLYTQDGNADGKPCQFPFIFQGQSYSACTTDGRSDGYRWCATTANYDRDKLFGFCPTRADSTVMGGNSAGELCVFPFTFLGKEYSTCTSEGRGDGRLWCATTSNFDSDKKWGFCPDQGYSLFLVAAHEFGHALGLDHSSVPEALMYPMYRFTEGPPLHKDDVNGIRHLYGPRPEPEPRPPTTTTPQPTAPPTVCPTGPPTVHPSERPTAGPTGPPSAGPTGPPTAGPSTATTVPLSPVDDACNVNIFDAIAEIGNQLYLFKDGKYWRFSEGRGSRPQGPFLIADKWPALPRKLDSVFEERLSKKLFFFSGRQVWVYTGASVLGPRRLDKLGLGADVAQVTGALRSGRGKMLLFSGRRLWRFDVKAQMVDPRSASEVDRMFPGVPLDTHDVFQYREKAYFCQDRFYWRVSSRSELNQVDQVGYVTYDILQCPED
T3 sequence (P14780 107-707 limits assumed): as above

`CC(NC(=O)OCc1ccccc1)P(=O)(O)CC(Cc1ccccc1)C(=O)O` (centres unmarked) [H4] gave a remaining activity at 100 µM [1, 4] of 101%, a remaining activity at 100 µM [1, 5] of 101% and a remaining activity at 100 µM [1, 6] of 102%. The remaining activity at 100 µM [1, 7] was 106%, the “vi/v0 Av (bar diagram figure 7)” value ([1]; inhibitor 100 μM, average over preincubation times) was 1.032 and the “vi/v0 (relative enzyme activity with inhibitor), single determinations” value [1, 8] was 1.105 and 1.3078 and 1.015 and 0.8074. The “vi/v0 (relative enzyme activity with inhibitor), single determinations” value [1, 9] was 0.8428 and 1.155 and 1.039, the “vi/v0 (relative enzyme activity with inhibitor), single determinations” value [1, 10] was 1.0115 and 1.061 and 0.9741 and the remaining activity at 100 µM [2, 11] was 99.2%. The remaining activity at 100 µM [2, 4] was 95%, the remaining activity at 100 µM [2, 6] was 100% and the remaining activity at 100 µM [2, 12] was 94.1%. The remaining activity at 100 µM [2, 7] was 99.6%, the “vi/v0 Av (bar diagram figure 7)” value [2, 13] was 0.9837 and the “vi/v0 (relative enzyme activity with inhibitor), single determinations” value [2, 8] was 0.9415 and 1.015 and 1.031. For the same molecule, the “vi/v0 (relative enzyme activity with inhibitor), single determinations” value [2, 9] was 0.9922 and 0.9231 and 0.9335, the “vi/v0 (relative enzyme activity with inhibitor), single determinations” value [2, 10] was 1.197 and 1.012 and 1.109 and 0.6833 and the remaining activity at 100 µM [3, 11] was 93.4%. The remaining activity at 100 µM [3, 4] was 93.8%, the remaining activity at 100 µM [3, 5] was 97.8% and the remaining activity at 100 µM [3, 6] was 96.3%. For the same molecule, the remaining activity at 100 µM [3, 12] was 84.9%, the remaining activity at 100 µM [3, 7] was 88.4% and the “vi/v0 Av (bar diagram figure 7)” value [3, 13] was 0.9238. The “vi/v0 (relative enzyme activity with inhibitor), single determinations” value [3, 8] was 0.8486 and 0.9422 and 0.8609, the “vi/v0 (relative enzyme activity with inhibitor), single determinations” value [3, 9] was 0.9336 and 1.006 and 0.8738 and the “vi/v0 (relative enzyme activity with inhibitor), single determinations” value [3, 10] was 0.9779 and 0.9473. It also gave a remaining activity at 100 µM (aureolysin (ALN); 0.25 h, read-out: vi/v0 (single replicate), Aureolysin, 15 min pre incubation) of 91.1%, a remaining activity at 100 µM (aureolysin (ALN); 0.25 h, read-out: vi/v0 avg, Aureolysin, 15 min pre incubation) of 90.2% and a remaining activity at 100 µM (aureolysin (ALN); 0.5 h, read-out: vi/v0 (single replicate), Aureolysin, 30 min pre incubation) of 90.1%. The remaining activity at 100 µM (aureolysin (ALN); 0.5 h, read-out: vi/v0 avg, Aureolysin, 30 min pre incubation) was 89.4%, the “vi/v0 Av (bar diagram figure 7)” value (aureolysin (ALN); Aureolysin (ALN), inhibitor 100 μM, average over 0, 15, 30 min preincubation) was 0.8998 and the “vi/v0 (relative enzyme activity with inhibitor), single determinations” value (aureolysin (ALN); Aureolysin (ALN), inhibitor 100 μM, preincubation 0 min) was 0.9356 and 0.8634 and 0.8536 and 0.9579. For the same molecule, the “vi/v0 (relative enzyme activity with inhibitor), single determinations” value (aureolysin (ALN); Aureolysin (ALN), inhibitor 100 μM, preincubation 15 min) was 0.9112 and 0.976 and 0.8542 and 0.865, the “vi/v0 (relative enzyme activity with inhibitor), single determinations” value (aureolysin (ALN); Aureolysin (ALN), inhibitor 100 μM, preincubation 30 min) was 0.898 and 0.8819 and the remaining activity at 100 µM (aureolysin (ALN); read-out: vi/v0 (single replicate), Aureolysin, no preincubation) was 93.6%. For the same molecule, the remaining activity at 100 µM (aureolysin (ALN); read-out: vi/v0 avg, Aureolysin, no preincubation) was 90.3%, the remaining activity at 100 µM (pseudolysin (PLN, LasB); 0.25 h, read-out: vi/v0 (single replicate), Pseudolysin, 15 min pre incubation) was 75.8% and the remaining activity at 100 µM (pseudolysin (PLN, LasB); 0.25 h, read-out: vi/v0 avg, Pseudolysin, 15 min pre incubation) was 75.4%. For the same molecule, the remaining activity at 100 µM (pseudolysin (PLN, LasB); 0.5 h, read-out: vi/v0 (single replicate), Pseudolysin, 30 min pre incubation) was 64.2%, the remaining activity at 100 µM (pseudolysin (PLN, LasB); 0.5 h, read-out: vi/v0 avg, Pseudolysin, 30 min pre incubation) was 64% and the “vi/v0 Av (bar diagram figure 7)” value (pseudolysin (PLN, LasB); Pseudolysin (PLN), inhibitor 100 μM, average over 0, 15, 30 min preincubation) was 0.7111. The “vi/v0 (relative enzyme activity with inhibitor), single determinations” value (pseudolysin (PLN, LasB); Pseudolysin (PLN), inhibitor 100 μM, preincubation 0 min) was 0.8985 and 0.6806 and 0.6817, the “vi/v0 (relative enzyme activity with inhibitor), single determinations” value (pseudolysin (PLN, LasB); Pseudolysin (PLN), inhibitor 100 μM, preincubation 15 min) was 0.7584 and 0.7504 and the “vi/v0 (relative enzyme activity with inhibitor), single determinations” value (pseudolysin (PLN, LasB); Pseudolysin (PLN), inhibitor 100 μM, preincubation 30 min) was 0.6423 and 0.5711 and 0.7059. For the same molecule, the remaining activity at 100 µM (pseudolysin (PLN, LasB); read-out: vi/v0 avg, Pseudolysin, no preincubation) was 75.4%, the “vi/v0 Av (bar diagram figure 7)” value (thermolysin (TLN); Thermolysin (TLN), inhibitor 100 μM, average over 0, 15, 30 min preincubation) was 0.9988 and the “vi/v0 (relative enzyme activity with inhibitor), single determinations” value (thermolysin (TLN); Thermolysin (TLN), inhibitor 100 μM, preincubation 0 min) was 1.0006 and 1.038 and 0.8834 and 0.9657. The “vi/v0 (relative enzyme activity with inhibitor), single determinations” value (thermolysin (TLN); Thermolysin (TLN), inhibitor 100 μM, preincubation 15 min) was 1.066 and 0.8371 and 1.067 and 1.122, the “vi/v0 (relative enzyme activity with inhibitor), single determinations” value (thermolysin (TLN); Thermolysin (TLN), inhibitor 100 μM, preincubation 30 min) was 1.04 and 0.9732 and 1.001 and 0.9929 and the “vi/v0 avg (time dependent inhibition, Supplementary Figure S8)” value (thermolysin (TLN); 15 min pre incubation) was 1.023. The “vi/v0 avg (time dependent inhibition, Supplementary Figure S8)” value (thermolysin (TLN); 30 min pre incubation) was 1.002 and the “vi/v0 avg (time dependent inhibition, Supplementary Figure S8)” value (thermolysin (TLN); No preincubation) was 0.9718.
